This note sets out measurements from patent publication US12466821B2 (Novartis AG, priority 2018, dated 2025).

Holding throughout (format): cell-based
The test system of experiment [1] is Luciferase-encoding HCMV, AD169 strain. Put plainly: CMV Luciferase assay (cellular herpesvirus replication). The gist of the method:
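Reporter HCMV AD169 with luciferase driven by late pp28 promoter, so signal requires viral DNA replication; NN-NHDF fibroblasts in 2% FBS medium, compound (0.0159–50 or 0.00318–10 μM, 0.5% DMSO) added 1 h before infection at MOI 1. Luminescence read 72 hpi; EC50 from 4-parameter fit of control-normalized %.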

Experiment [2] has as its system KOS strain of HSV-1 virus. Put plainly: HSV-1 qPCR assay (cellular herpesvirus replication). The following applies: Human alphaherpesvirus 1; NN-NHDF cells, qPCR after 24 hrs; n>3, value (+/- spread). On the procedure: (§1) For all viral assays, 10 mM DMSO stock compound solutions were serially diluted in DMSO at 3.16 fold dilutions in 96-well clear round bottom plates. Compounds were then diluted in assay media at 1:20 and subsequently 10 μL of these dilutions were added to cells for final compound concentrations ranging either from 0.0159 μM to 50 μM in 0.5% DMSO/assay media, or from 0.00318 to 10 μM in 0.5% DMSO/assay media.
HSV-1 qPCR assay: The assay uses KOS strain of HSV-1 virus (ATCC cat #VR-1493). Viral replication in the presence or absence of compounds was measured by qPCR according to the following procedure: NN-NHDF cells were plated at 9,000 cells/well in 96-well white-wall clear bottom plates in 80 μL/well of assay media (same as CMV) and left at room temperature in laminar flow hood for 20 mins followed by incubation at 37° C. […]
(§2) qPCR reactions were carried out in a total reaction volume of 20 μL, using the QuantiFast® Multiplex PCR kit (Qiagen cat #204656). Eighteen μL of qPCR master mix (10 μL of 2× QuantiFast® Multiplex PCR Master Mix, 1 μL of 20× Primer/Probe Mix specific to housekeeping gene, 1 μL of 20× Primer/Probe Mix specific to viral gene, 6 μL of H2O) was distributed into each well of a 384 well plate. […]
Relative quantification was calculated with the ΔΔCT Method, and then converted into percent inhibitions. […] EC50 values were calculated using XLFit Dose Response One Site Model 205.

Experiment [3] relates to EBV (SNU-719 gastric carcinoma cell line latently infected with EBV). Description: EBV qPCR assay (cellular herpesvirus replication). To be noted: human gammaherpesvirus 4; SNU-719 cells, TPA/NaB reactivation, qPCR after 72 hrs; n>3, value (+/- spread). On the procedure:
as §1
EBV qPCR assay: The assay uses the SNU-719 gastric carcinoma cell line which is latently infected with EBV. Upon reactivation with chemical reagents, EBV DNA copy number was measured by qPCR. Viral replication in the presence or absence of compounds was measured according to the following procedure: SNU-719 cells were plated at 2×10^4 cells/well in 96-well clear bottom plates, black in 80 μL/well of assay media: 2% FBS in RPMI 1640 (ATCC cat # 30-2001). […]
as §2
Relative quantification was calculated with the ΔΔCT Method, and then converted into percent inhibitions. […]

Like-named read-outs stand apart in the source and are kept apart here.

`N#Cc1ccc(CNC(=O)c2ccc3n(c2=O)CCN(CC2(S(=O)(=O)C4CC4)CC2)C3=O)cc1` [Example 1, N-(4-cyanobenzyl)-2-((1-(cyclopropylsulfonyl)cyclopropyl)methyl)-1,6-dioxo-2,3,4,6-tetrahydro-1H-pyrido[1,2-a]pyrazine-7-carboxamide]: the EC50 worked out at 23.2 nM in experiment [1] (Human betaherpesvirus 5, AD169, read-out: CMV-Luc Cellular EC50); 24 nM in experiment [1] (Human betaherpesvirus 5, AD169, read-out: EC50 Human herpesvirus CMV); 32 nM in experiment [2]; 12 nM in experiment [3].
